Patent US8507219B2, “Method of treating inflammation with statins” (MUSC Foundation for Research Development, priority 1997, dated 2013)

What was measured:
[1] = test system: intracellular GSH in rat primary astrocytes; test: Intracellular GSH / GSSG in rat primary astrocytes; type: cell-based; settings: 10 mM NAC 1 h; TNF-α or IL-1β 50 ng/ml; diamide 0.5 mM
Description: Measurement of reduced glutathione (GSH) concentration in rat primary astrocytes Concentration of intracellular GSH was measured using a colorimetric assay kit for GSH from RandD, USA. Briefly, 2×10^6 cells were homogenized in 500 μl of ice-cold 5% metaphosphoric acid and centrifuged at 3000 g for 10 min. Supernatants were used to assay GSH using 4-chloro-1-methyl-7-trifluoromethyl-quinolinium methylsulfate and 30% NaOH at 400 nm.
Measurement of GSH (Reduced Glutathione) and GSSG Oxidized Glutathione Concentration of intracellular reduced GSH was measured using a calorimetric assay kit for GSH from R & D Systems. Briefly, 2×10^6 cells were homogenized in 500 μl of ice-cold 5% metaphosphoric acid and centrifuged at 3000×g for 10 min. Supernatants were used to assay GSH using 4-chloro-1-methyl-7-trifluoromethylquinolinium methylsulfate and 30% NaOH at 400 nm. Concentration of GSSG was determined according to the method of Griffith (1980) after derivatization with 2-vinylpyridine for 30 min at room temperature.

[2] = test system: ceramide production in rat primary astrocytes; test: Degradation of sphingomyelin to ceramide (DAG kinase assay, HPTLC) in rat primary astrocytes; type: cell-based
Description: Lipid extraction Approximately 1.0×10^6 cells were exposed to different cytokines in the presence or absence of antioxidants for different periods and lipids were extracted according to the methods described by Welsh (1996).
Quantification of sphingomyelin by HPTLC and densitometry Sphingomyelin was separated from total lipid extracts by HPTLC (LPK-plates from Whatman Labsales, USA) as described (Ganser et al., 1988) for phospholipids with the modification, that the plate was overrun for 30 min during its development and was dried overnight in vacuum desicator. Sphingomyelin was quantitated by densitometric scanning using Imaging Densitometer (Model GS-670; Bio-Rad, USA) and software provided with the instrument by the manufacturer.
Quantification of ceramide levels by diacylglycerol kinase assay Ceramide content was quantified essentially according to Priess et al. using diacylglycerol (DAG) kinase and [γ-^32P]ATP (Priess et al., 1986). Briefly, dried lipids were solubilized in 20 μl of an octyl β-D-glucoside/cardiolipin solution (7.5% octyl β-D-glucoside, 5 mM cardiolipin in 1 mM DTPA) by sonication in a sonicator bath. […] The labeled ceramide 1-phosphate was resolved with a solvent system consisting of methyl acetate: n-propanol:chloroform:methanol:0.25% KCl in water:acetic-acid (100:100:100:40:36:2). A standard sample of ceramide was phosphorylated under identical conditions and developed in parallel. […] Quantification of ceramide 1-phosphate was carried out by autoradiography and densitometric scanning using Imaging Densitometer (Model GS-670; Bio-Rad, USA). Values are expressed either as arbitrary units (absorbance) or as percent change.
Lipid Extraction Approximately 1.0×10^6 cells were exposed to different cytokines in the presence or absence of antioxidants for different periods, and lipids were extracted according to the methods described by Welsh (1996).
Quantification of Sphingomyelin by High Performance TLC and Densitometry Sphingomyelin was separated from total lipid extracts by high performance TLC (LHPK plates from Whatman) as described by Ganser et al. (1988) for phospholipids with the following modification: the plate was overrun for 30 min during its development and was dried overnight in vacuum desiccator. Sphingomyelin was quantitated by densitometric scanning using Imaging Densitometer (model GS-670; Bio-Rad), and software was provided with the instrument by the manufacturer.
Quantification of Ceramide Levels by Diacylglycerol Kinase Assay Ceramide content was quantified essentially according to Priess et al. (1986) using diacylglycerol (DAG) kinase and [γ-^32P]ATP. Briefly, dried lipids were solubilized in 20 μl of an octyl β-D-glucoside/cardiolipin solution (7.5% octyl β-D-glucoside, 5 mM cardiolipin in 1 mM DTPA) by sonication in a sonicator bath. […] The labeled ceramide-1-phosphate was resolved with a solvent system consisting of methyl acetate:n-propyl alcohol:chloroform:methanol, 0.25% KCl in water:acetic acid (100:100:100:40:36:2). A standard sample of ceramide was phosphorylated under identical conditions and developed in parallel. […] Quantification of ceramide-1-phosphate was carried out by autoradiography and densitometric scanning using Imaging Densitometer (model GS-670; Bio-Rad). Values are expressed either as arbitrary units (absorbance) or as percent change.

[3] = test system: rat primary oligodendrocytes; test: Apoptosis (DNA fragmentation, laddering) in rat primary oligodendrocytes; type: cell-based; settings: 10 mM NAC 1 h; diamide 0.5 mM, TNF-α 50 ng/ml or C2-ceramide; 12 h
Description: Detection of DNA fragmentation Cells (1×10^6) were pelleted in an eppendorf tube by centrifugation at 1,000 rpm for 5 min, washed with PBS (pH 7.4), resuspended gently in 50 μl of a lysis buffer [200 mM NaCl, 10 mM Tris-HCl (pH 8.0), 40 mM EDTA (pH 8.0), 0.5% SDS, 400 ng RNase A/μl] and incubated at 37° C. for 1 h. The lysate received 200 μl of the digestion buffer [200 mM NaCl, 10 mM Tris-HCl (pH 8.0), 0.5% SDS, 125 ng proteinase K/μl]. The contents were mixed by inversion several times and then incubated at 50° C. for 2 h. An equal volume of a mixture phenol (pH 8.0), chloroform and isoamyl alcohol (25:24:1, v/v) was added, gently mixed for 10 min, and stored at room temperature for 2 min. […] The gel was stained with ethidium bromide and DNA-intercalated ethidium fluorescence was photographed on Polaroid film 665 (P/N) using an orange filter. […]
Detection of DNA Fragmentation Cells (1×10^6) were pelleted in an Eppendorf tube by centrifugation at 1000 rpm for 5 min, washed with phosphate-buffered saline, pH 7.4, resuspended gently in 50 μl of a lysis buffer (200 mM NaCl, 10 mM Tris-HCl, pH 8.0, 40 mM EDTA, pH 8.0, 0.5% SDS, 400 ng of RNase A/μl), and incubated at 37° C. for 1 h. […] The gel was stained with ethidium bromide, and DNA-intercalated ethidium fluorescence was photographed on Polaroid film 665 (P/N) using an orange filter. […]

[4] = X-ALD patients; cited from earlier work

SMILES: CN(C)C(=O)/N=N/C(=O)N(C)C [diamide]
- intracellular level of GSH / GSSG [1]: increased the intracellular level of GSSG
- increase in ceramide production [2]: about 7 fold
- ceramide formation and DNA fragmentation / apoptosis [3]: induced internucleosomal DNA fragmentation

SMILES: CCCCCCCC/C=C\CCCCCCCC(=O)OCC(COC(=O)CCCCCCC/C=C\CCCCCCCC)OC(=O)CCCCCCC/C=C\CCCCCCCC [trioleate]
- reduction of VLCFA [4]: 50%
